In patent publication US10617680B2 (CELGENE QUANTICEL RESEARCH, INC., priority 2017, dated 2020):

Target: CBP (Homo sapiens (Human), UniProt Q92793)
Experiment: In vitro CBP inhibition (AlphaScreen, biotinylated H4-tetraacetyl peptide)
Assay type: binding
Details: AlphaScreen, Table 29; read-out: CBP IC50
Method in brief: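 His-tagged CBP expressed in E. coli (50 nM final) incubated with biotinylated H4K5/8/12/16(Ac) peptide (20 nM final) in 50 mM HEPES pH 7.3, 10 mM NaCl, 0.25 mM TCEP, 0.1% BSA, 0.005% Brij-35, 0.4% DMSO, 20 min at room temp.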

Chain of CBP (Q92793 1081-1197): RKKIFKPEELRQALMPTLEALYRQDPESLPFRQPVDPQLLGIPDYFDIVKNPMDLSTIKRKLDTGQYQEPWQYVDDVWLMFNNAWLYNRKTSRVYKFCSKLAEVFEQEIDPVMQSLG

Row | Structure (SMILES) | IC50 [nM]
1 | Cn1ccc(-c2cc(=O)n(C)cc2-c2cnn(-c3cccc(C4CC4)c3C#N)c2)cc1=O [Example 380, 2-cyclopropyl-6-[4-[1-methyl-4-(1-methyl-2-oxo-4-pyridyl)-6-oxo-3-pyridyl]pyrazol-1-yl]benzonitrile] | < 500
2 | CNS(=O)(=O)C1CCN(c2cc(=O)n(C)cc2-c2cnn(Cc3ccccc3)c2)C1 (centres unmarked) [Example 172, 1-(5-(1-benzyl-1H-pyrazol-4-yl)-1-methyl-2-oxo-1,2-dihydropyridin-4-yl)-N-methylpyrrolidine-3-sulfonamide] | < 500
3 | COCCNc1ncc(-c2cc(=O)n(C)cc2-c2cnn(-c3ccccc3C#N)c2)cn1 [Example 324, 2-(4-(4-(2-((2-methoxyethyl)amino)pyrimidin-5-yl)-1-methyl-6-oxo-1,6-dihydropyridin-3-yl)-1H-pyrazol-1-yl)benzonitrile] | < 500
4 | CNc1ncc(-c2cc(=O)n(C)cc2-c2cnn(-c3cccc(Cl)c3C#N)c2)cn1 [Example 332, 2-chloro-6-(4-(1-methyl-4-(2-(methylamino)pyrimidin-5-yl)-6-oxo-1,6-dihydropyridin-3-yl)-1H-pyrazol-1-yl)benzonitrile] | < 500
5 | Cn1cc(-c2cnn(-c3cccc(C4CC4)c3C#N)c2)c(-c2ccn(CCO)c(=O)c2)cc1=O [Example 390, 2-cyclopropyl-6-[4-[4-[1-(2-hydroxyethyl)-2-oxo-4-pyridyl]-1-methyl-6-oxo-3-pyridyl]pyrazol-1-yl]benzonitrile] | < 500
6 | Cn1cc(-c2cnn(C3CCCCC3)c2)c(-c2ccccc2)cc1=O [Example 125, 5-(1-cyclohexyl-1H-pyrazol-4-yl)-1-methyl-4-phenylpyridin-2(1H)-one] | < 500
7 | Cn1cc(-c2cn(C)c(=O)cc2C2CC2)cn1 [Example 144, 4-cyclopropyl-1-methyl-5-(1-methyl-1H-pyrazol-4-yl) pyridin-2(1H)-one] | < 500
8 | CC(c1ccccc1)n1cc(-c2cn(C)c(=O)cc2N2CCC2)cn1 (centres unmarked) [Example 40, 4-(azetidin-1-yl)-1-methyl-5-(1-(1-phenylethyl)-1H-pyrazol-4-yl) pyridin-2(1H)-one] | < 500
9 | Cn1cc(-c2cnn(C3CCOCC3)c2)c(-c2ccccc2)cc1=O [Example 126, 1-methyl-4-phenyl-5-(1-(tetrahydro-2H-pyran-4-yl)-1H-pyrazol-4-yl) pyridin-2(1H)-one] | < 500
10 | CC(=O)NC[C@@H]1CCN(c2cc(=O)n(C)cc2-c2cnn(Cc3ccccc3)c2)C1 (stereo in doubt) [Example 89, N-{1-[5-(1-benzyl-1H-pyrazol-4-yl)-1-methyl-2-oxo-1,2-dihydro-pyridin-4-yl]-pyrrolidin-3-ylmethyl}-acetamide] | < 500
11 | COc1ccc(-c2cc(=O)n(C)cc2-c2cnn(-c3ccccc3S(C)(=O)=O)c2)cn1 [Example 285, 5′-[1-(2-Methanesulfonyl-phenyl)-1H-pyrazol-4-yl]-6-methoxy-1′-methyl-1′H-[3,4′]bipyridinyl-2′-one] | < 500
12 | CC(C)Oc1ccc(-c2cc(=O)n(C)cc2-c2cnn(-c3cccc(Cl)c3C#N)c2)cn1 [Example 363, 2-chloro-6-[4-[4-(6-isopropoxy-3-pyridyl)-1-methyl-6-oxo-3-pyridyl]pyrazol-1-yl]benzonitrile] | < 500
13 | CC(c1cccc(Cl)c1)n1cc(-c2ccc(=O)n(C)c2)cn1 (centres unmarked) [Example 23, 5-(1-(1-(3-chlorophenyl)ethyl)-1H-pyrazol-4-yl)-1-methyl-pyridin-2(1H)-one] | < 500
14 | COc1ccc(-c2cc(=O)n(C)cc2-c2cnn(Cc3ccccc3)c2)cc1 [Example 120, 5-(1-benzyl-1H-pyrazol-4-yl)-4-(4-methoxyphenyl)-1-methyl-pyridin-2(1H)-one] | < 500
15 | Cn1cc(-c2cnn(Cc3ccccc3)c2)c(SCC(=O)O)cc1=O [Example 169, [5-(1-Benzyl-1H-pyrazol-4-yl)-1-methyl-2-oxo-1,2-dihydro-pyridin-4-ylsulfanyl]-acetic acid] | < 500
16 | CCOc1cc(=O)n(C)cc1-c1cnn(-c2c(Cl)cccc2Cl)c1 [Example 98, 5-(1-(2,6-dichlorophenyl)-1H-pyrazol-4-yl)-4-ethoxy-1-methyl-pyridin-2(1H)-one] | < 500
17 | Cn1cc(-c2cnn(Cc3ccccc3)c2)c(-c2cnn(CC(C)(C)O)c2)cc1=O [Example 161, 5-(1-benzyl-1H-pyrazol-4-yl)-4-(1-(2-hydroxy-2-methylpropyl)-1H-pyrazol-4-yl)-1-methyl-pyridin-2(1H)-one] | < 500
18 | Cn1ccc(-c2cc(=O)n(C)cc2-c2cnn(-c3cccc(Cl)c3C#N)c2)cc1=O [Example 276, 2-Chloro-6-[4-(1,1′-dimethyl-6,2′-dioxo-1,6,1,′,2′-tetrahydro-[4,4′]bipyridinyl-3-yl)-pyrazol-1-yl]-benzonitrile] | < 500
19 | CNC(=O)[C@H]1CCN(c2cc(=O)n(C)cc2-c2cnn(Cc3ccccc3)c2)C1 [Example 93, 1-[5-(1-benzyl-1H-pyrazol-4-yl)-1-methyl-2-oxo-1,2-dihydro-pyridin-4-yl]-pyrrolidine-3-methylacetamide] | < 500

Row | Structure (SMILES) | IC50 [nM]
20 | CN(C)C(=O)Cn1cc(-c2cn(C)c(=O)cc2-c2ccccc2)cn1 [Example 135, N,N-dimethyl-2-(4-(1-methyl-6-oxo-4-phenyl-1,6-dihydropyridin-3-yl)-1H-pyrazol-1-yl)acetamide] | < 500
21 | Cn1cc(-c2cnn(Cc3ccc(F)cc3)c2)ccc1=O [Example 6, 5-(1-(4-fluorobenzyl)-1H-pyrazol-4-yl)-1-methylpyridin-2(1H)-one] | 500 to 5000
22 | COc1ccccc1C(C)n1cc(-c2ccc(=O)n(C)c2)cn1 (centres unmarked) [Example 27, 5-(1-(1-(2-methoxy-phenyl)ethyl)-1H-pyrazol-4-yl)-1-methyl-pyridin-2(1H) one] | < 500
23 | Cn1cc(-c2cnn(-c3ccccc3C#N)c2)c(C2CC2)cc1=O [Example 207, 2-[4-(4-Cyclopropyl-1-methyl-6-oxo-1,6-dihydro-pyridin-3-yl)-pyrazol-1-yl]-benzonitrile] | < 500
24 | COc1cc(-c2cc(=O)n(C)cc2-c2cnn(-c3ccccc3C#N)c2)ccn1 [Example 220, 2-[4-(2′-Methoxy-1-methyl-6-oxo-1,6-dihydro-[4,4′]bipyridinyl-3-yl)-pyrazol-1-yl]-benzonitrile] | < 500
25 | Cc1ccccc1C(C)n1cc(-c2ccc(=O)n(C)c2)cn1 (centres unmarked) [Example 22, 1-methyl-5-(1-(1-(o-tolyl)ethyl)-1H-pyrazol-4-yl)pyridin-2(1H)-one] | < 500
26 | COC1CN(c2cc(=O)n(C)cc2-c2cnn(C(C)c3ccccc3)c2)C1 (centres unmarked) [Example 58, 4-(3-methoxyazetidin-1-yl)-1-methyl-5-(1-(1-phenylethyl)-1H-pyrazol-4-yl)pyridin-2(1H)-one] | 500 to 5000
27 | Cn1cc(-c2cnn(-c3cccc(F)c3C#N)c2)c(-c2ccc(C3CC3)nc2)cc1=O [Example 374, 2-[4-[4-(6-cyclopropyl-3-pyridyl)-1-methyl-6-oxo-3-pyridyl]pyrazol-1-yl]-6-fluoro-benzonitrile] | < 500
28 | CC(c1cccnc1)n1cc(-c2ccc(=O)n(C)c2)cn1 (centres unmarked) [Example 24, 1-methyl-5-(1-(1-(pyridin-3-yl)ethyl)-1H-pyrazol-4-yl)pyridin-2(1H)-one] | 500 to 5000
29 | COc1ncc(-c2cc(=O)n(C)cc2-c2cnn(-c3ccccc3Cl)c2)cc1C [Example 316, 5′-(1-(2-chlorophenyl)-1H-pyrazol-4-yl)-6-methoxy-1′,5-dimethyl-[3,4′-bipyridin]-2′(1′H)-one] | < 500
30 | Cn1cc(-c2cnn(-c3cccc(Cl)c3C#N)c2)c(-c2ccc(OC3CCCC3)nc2)cc1=O [Example 352, 2-chloro-6-[4-[4-[6-(cyclopentoxy)-3-pyridyl]-1-methyl-6-oxo-3-pyridyl]pyrazol-1-yl]benzonitrile] | < 500
31 | COc1ccc(C(=O)O)c(-n2cc(-c3cn(C)c(=O)cc3-c3ccccc3)cn2)c1 [Example 267, 4-Methoxy-2-[4-(1-methyl-6-oxo-4-phenyl-1,6-dihydro-pyridin-3-yl)-pyrazol-1-yl]-benzoic acid] | < 500
32 | Cc1ccc(-c2cc(=O)n(C)cc2-c2cnn(-c3cccc(F)c3C#N)c2)cn1 [Example 367, 2-(4-(1′,6-dimethyl-6′-oxo-1′,6′-dihydro-[3,4′-bipyridin]-3′-yl)-1H-pyrazol-1-yl)-6-fluorobenzonitrile] | < 500
33 | Cn1cc(-c2cnn(CC3CC3)c2)c(-c2ccc(Cl)cc2)cc1=O [Example 153, 4-(4-chloro-phenyl)-5-(1-cyclopropylmethyl-1H-pyrazol-4-yl)-1-methyl-1H-pyridin-2-one] | < 500
34 | Cc1c(-c2cn(C)c(=O)cc2-c2ccccc2)cnn1C [Example 164, 5-(1,5-dimethyl-1H-pyrazol-4-yl)-1-methyl-4-phenylpyridin-2(1H)-one] | 500 to 5000
35 | CCc1ccc(-c2cc(=O)n(C)cc2-c2cnn(-c3cccc(F)c3C#N)c2)cn1 [Example 372, 2-(4-(6-ethyl-1′-methyl-6-oxo-1′,6′-dihydro-[3,4′-bipyridin]-3′-yl)-1H-pyrazol-1-yl)-6-fluorobenzonitrile] | < 500
36 | Cn1cc(-c2cnn(Cc3ccccc3)c2)c(-c2cccs2)cc1=O [Example 116, 5-(1-benzyl-1H-pyrazol-4-yl)-1-methyl-4-(thiophen-2-yl) pyridin-2(1H)-one] | < 500
37 | COc1ccc(C#N)c(-n2cc(-c3cn(C)c(=O)cc3-c3ccc(F)cc3)cn2)c1 [Example 263, 2-{4-[4-(4-Fluoro-phenyl)-1-methyl-6-oxo-1,6-dihydro-pyridin-3-yl]-pyrazol-1-yl}-4-methoxy-benzonitrile] | < 500
38 | Cn1cc(-c2cc(=O)n(C)cc2-c2cnn(-c3ccccc3C(=O)NC#N)c2)cn1 [Example 289, N-cyano-2-(4-(1-methyl-4-(1-methyl-1H-pyrazol-4-yl)-6-oxo-1,6-dihydropyridin-3-yl)-1H-pyrazol-1-yl)benzamide] | < 500
